Experimental findings from PMC3521961, “Molecular Basis for Recognition of Dilysine Trafficking Motifs by COPI” (Developmental Cell, 2012) are described below.

Numbering of substitutions follows the chain as printed. “Also recorded” adds a separate entry of the source. No end group written: not given here. A value given as a limit tells only on which side of the number the result lay.

By Kd is commonly meant the constant that tells how readily two partners part at equilibrium.

Assay [1] deals with α-COP R13A K15S R57S mutant (α1-327). In words: ITC with α1-327 R13A K15S R57S mutant. The assay is classed as binding, yeast. Conditions: 10°C, 300 mM NaCl. How it is done:
(§1) ITC experiments were conducted on a Microcal VP-ITC machine (GE Healthcare) at 10°C. Molar peptide concentration in the syringe was ten times that of protein in the cell. β'-COP constructs were gel filtered into 50 mM HEPES (pH 7.4) and 100 mM NaCl, and α-COP constructs were gel filtered into 50 mM HEPES (pH 7.4) and 300 mM NaCl prior to runs. Titration data were analyzed in ORIGIN to obtain values for stoichiometry (N), equilibrium association constant (Ka), and enthalpy of binding. All experiments were carried out at least three times with appropriate standard deviations reported.
(§2) Figure S3, related to Figure 2. Model and in vitro data of α-COP 1-327 binding to a KKxx
(§3) motif. A homology model of residues 1-327 of yeast α-COP binding to the KKTN motif from
(§4) (1 picture or pasted object on this page, not shown here)
(§5) Homology model of the α-COP N-terminal propeller
(§6) Isothermal titration calorimetry

Assay [2] deals with α-COP D229A E273A mutant (α1-327). In words: ITC with α1-327 D229A E273A mutant. The assay is classed as binding, yeast. The following applies: 10°C, 300 mM NaCl. How it is done:
as §1, §2, §3, §4, §5, §6

Assay [3] has as its system α-COP D96A D115A mutant (α1-327). Nature of the assay: ITC with α1-327 D96A D115A mutant. The format is binding, yeast. The following applies: 10°C, 300 mM NaCl. As for the experimental part: as §1, §2, §3, §4, §5, §6
Assay [4] has as its target T1, yeast β'-COP 1-304 (N-terminal WD-repeat domain), wild-type (Saccharomyces cerevisiae, UniProt P41811).
T1 construct: GST (thrombin-cleavable) (C, cleaved yes); made in house; host or cells: E. coli BL21(DE3)pLysS
T1 sequence (P41811 1-304): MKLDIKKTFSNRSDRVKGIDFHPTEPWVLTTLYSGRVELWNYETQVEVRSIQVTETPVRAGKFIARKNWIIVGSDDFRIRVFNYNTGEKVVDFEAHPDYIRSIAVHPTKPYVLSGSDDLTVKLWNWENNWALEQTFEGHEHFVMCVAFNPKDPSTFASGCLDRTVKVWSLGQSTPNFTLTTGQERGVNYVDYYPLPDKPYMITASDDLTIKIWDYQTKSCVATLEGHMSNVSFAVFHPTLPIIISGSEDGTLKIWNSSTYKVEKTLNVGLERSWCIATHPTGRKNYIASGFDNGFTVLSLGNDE
Nature of the assay: ITC of dilysine motif peptides with wild-type β'1-304. The format is binding. Conditions: for binding by ITC (in words): 10°C, 50 mM HEPES pH 7.4, 100 mM NaCl, at least three runs. How it is done: as §6
equilibrium association constant (Ka), and enthalpy of binding. All experiments were carried out
100 mM NaCl to mimic physiological salt conditions. Wild type yeast α-COP (α1-327) was gel
Immediately prior to a run, the protein was
mM NaCl than at 100 mM NaCl.
and ultraviolet absorbance (Agilent 1200 UV, Agilent Technologies). Samples of β’1-304 or 1-
the construct lacks the α-solenoid domain. […]
A general note: In ITC the heat of successive injections is recorded.

In assay [5] the target is β'-COP D206A E248A mutant (β'1-304) (Saccharomyces cerevisiae, UniProt P41811, D206A/E248A). Nature of the assay: biochemical. As for the experimental part: (§7) The β'-COP R15A K17A R59A mutant was designed to disrupt binding to the carboxy terminus of the motif, and the D206A E248A mutant was intended to disrupt binding to the -3 lysine.
β'-COP D206A E248A mutant (β'1-304), sequence (P41811 1-304 D206A/E248A): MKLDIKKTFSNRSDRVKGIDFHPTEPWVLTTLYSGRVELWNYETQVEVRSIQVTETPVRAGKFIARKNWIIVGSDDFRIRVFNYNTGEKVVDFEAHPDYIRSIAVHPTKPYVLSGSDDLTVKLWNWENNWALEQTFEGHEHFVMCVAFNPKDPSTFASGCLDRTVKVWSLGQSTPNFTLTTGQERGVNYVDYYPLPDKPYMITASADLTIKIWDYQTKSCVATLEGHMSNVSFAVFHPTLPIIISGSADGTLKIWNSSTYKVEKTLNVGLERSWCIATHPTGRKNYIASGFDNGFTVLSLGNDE
as §1, §5, §6

Assay [6] deals with β'-COP D98A D117A mutant (β'1-304) (Saccharomyces cerevisiae, UniProt P41811, D117A/D98A). In words: biochemical. As for the experimental part: as §7, §1, §5, §6
β'-COP D98A D117A mutant (β'1-304), sequence (P41811 1-304 D98A/D117A): as the sequence (P41811 1-304 D206A/E248A) above, with D98A, D117A, A206D, A248E counted along it
For assay [7], the target named is β'-COP R15A K17A R59A mutant (β'1-304) (Saccharomyces cerevisiae, UniProt P41811, K17A/R15A/R59A). Nature of the assay: biochemical. How it is done:
as §7, §1, §5, §6

Assay [8] has as its target T2, yeast β'-COP 1-604 (both WD-repeat domains) (yeast (S. cerevisiae), UniProt P41811 1-604).
T2 construct: constructs are in the Supplemental Experimental Procedures
T2 sequence (looked up): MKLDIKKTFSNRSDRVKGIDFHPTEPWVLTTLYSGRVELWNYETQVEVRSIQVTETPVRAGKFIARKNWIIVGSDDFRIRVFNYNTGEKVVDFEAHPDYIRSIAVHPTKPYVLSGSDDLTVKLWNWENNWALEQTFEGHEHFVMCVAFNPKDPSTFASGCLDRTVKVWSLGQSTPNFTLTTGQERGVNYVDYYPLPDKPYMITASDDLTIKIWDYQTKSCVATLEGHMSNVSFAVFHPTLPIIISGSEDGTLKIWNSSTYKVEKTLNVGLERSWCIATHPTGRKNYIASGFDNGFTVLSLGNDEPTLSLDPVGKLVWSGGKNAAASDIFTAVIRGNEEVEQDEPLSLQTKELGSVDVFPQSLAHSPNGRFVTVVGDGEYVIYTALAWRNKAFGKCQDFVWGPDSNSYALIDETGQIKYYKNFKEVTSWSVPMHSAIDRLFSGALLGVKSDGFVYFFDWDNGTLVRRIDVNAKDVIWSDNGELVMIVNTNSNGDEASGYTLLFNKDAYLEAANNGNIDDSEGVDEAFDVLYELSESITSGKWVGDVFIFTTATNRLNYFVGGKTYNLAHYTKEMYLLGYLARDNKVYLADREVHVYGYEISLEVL
In words: crystal structure; β'1-604 (10 mg/ml) with CTFKTKTN (30 mg/ml, mixed 1:10); 0.1 M bicine (pH 9.0), 10% MPD; space group P3(1), twinned. Conditions: both partners purified.

Assay [9] has as its target T3, yeast β'-COP 1-304 (N-terminal WD-repeat domain), untagged, wild type (yeast (S. cerevisiae), UniProt P41811 1-304).
T3 construct: also called β'-COP N-terminal WD-repeat domain
T3 sequence (looked up): T1 sequence (P41811 1-304)
In words: crystal structure; β'1-304 (10 mg/ml) with CTFKTKTN (30 mg/ml, mixed 1:10); 0.1 M HEPES (pH 7.5), 0.5 M ammonium sulfate, 30% v/v MPD; space group P6(1). The following applies: both partners purified.

The target in assay [10] is T3, yeast β'-COP 1-304 (N-terminal …). In words: crystal structure; β'1-304 (untagged) with CTFKKTN; details in the Supplemental Experimental Procedures. Conditions: both partners purified.
For assay [11] the target is unchanged. In words: ITC; Microcal VP-ITC, 10°C; peptide in the syringe at ten times the molar concentration of the β'-COP construct in the cell; 50 mM HEPES (pH 7.4), 100 mM NaCl. Conditions: both partners purified.
Assay [12] concerns the target T4, yeast β'-COP 1-304 R15A K17A R59A (yeast (S. cerevisiae), UniProt P41811 1-304, R15A | K17A | R59A).
T4 construct: constructs are in the Supplemental Experimental Procedures; also called β'-COP R15A K17A R59A mutant
T4 sequence (looked up): T1 sequence (P41811 1-304) with R15A, K17A, R59A
Described as above. Conditions: both partners purified.

Assay [13] deals with T5, yeast β'-COP 1-304 D206A E248A (yeast (S. cerevisiae), UniProt P41811 1-304, D206A | E248A).
T5 construct: constructs are in the Supplemental Experimental Procedures; also called D206A E248A mutant
T5 sequence (looked up): T1 sequence (P41811 1-304) with D206A, E248A
Described as above. The following applies: both partners purified.

In assay [14] the target is T6, yeast β'-COP 1-304 D98A D117A (yeast (S. cerevisiae), UniProt P41811 1-304, D98A | D117A).
T6 construct: constructs are in the Supplemental Experimental Procedures; also called D98A D117A mutant
T6 sequence (looked up): T1 sequence (P41811 1-304) with D98A, D117A
Described as above. Conditions: both partners purified.

Assay [15] concerns the target T7, yeast β'-COP 1-304 (N-terminal WD-repeat domain), untagged (yeast (S. cerevisiae), UniProt P41811 1-304).
T7 construct: source: E. coli BL21(DE3)pLysS, purified (glutathione sepharose, thrombin cleavage, S200 gel filtration); not shown: GST, C-terminal, cleaved
T7 sequence (looked up): T1 sequence (P41811 1-304)
In words: ITC; Microcal VP-ITC, 10°C; peptide in the syringe, protein in the cell; 50 mM Hepes pH 7.4, 100 mM NaCl. The following applies: both partners purified.

The target of assay [16] is T8, yeast α-COP 1-327 (N-terminal WD-repeat domain), wild type (yeast (S. cerevisiae), UniProt P53622 1-327).
T8 construct: α-COP (Ret1), yeast, residues 1-327, N-terminal WD-repeat domain; also called α1-327; Wild type A327; source: E. coli BL21(DE3)pLysS, purified (glutathione sepharose, thrombin cleavage, S200 gel filtration); not shown: GST, C-terminal, cleaved
T8 sequence (looked up): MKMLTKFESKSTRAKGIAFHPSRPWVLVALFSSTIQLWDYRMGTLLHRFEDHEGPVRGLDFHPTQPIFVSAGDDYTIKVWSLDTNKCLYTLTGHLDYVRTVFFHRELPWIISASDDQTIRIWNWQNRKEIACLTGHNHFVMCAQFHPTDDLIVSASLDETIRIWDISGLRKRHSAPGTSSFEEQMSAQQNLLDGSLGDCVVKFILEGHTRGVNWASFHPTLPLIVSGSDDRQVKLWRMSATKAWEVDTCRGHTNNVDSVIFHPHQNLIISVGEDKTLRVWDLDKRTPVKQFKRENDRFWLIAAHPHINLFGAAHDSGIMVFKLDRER
In words: ITC; Microcal VP-ITC, 10°C, 35 injections of 8 µL; peptide in the syringe at ten times the molar concentration of the protein in the cell; α-COP desalted into 20 mM Hepes pH 7.4, 300 mM NaCl (high salt required for stability). Conditions: both partners purified.

β'-COP R15A K17A R59A mutant (β'1-304), sequence (P41811 1-304 R15A/K17A/R59A): as the sequence (P41811 1-304 D206A/E248A) above, with R15A, K17A, R59A, A206D, A248E counted along it

In the case of CTFKKTN-OH [KKTN], the “binding by ITC (in words)” value in [1], in assay [2] and in [3] was “no measurable binding” each time. Take KKLIE [KKLIE peptide from p23]: the “binding by ITC (in words)” value in [4] is listed as “no measurable binding; also recorded: does not bind”. As for KTKLL-CONH2 [amidated KTKLL peptide], the “binding by ITC (in words)” value in [4] was “no measurable binding”. On the same count and under the same terms, under “KTSLL [KTKLL motif variant lacking the -3 lysine]” stands “no measurable binding”. As for RQEIIKTKLL [KTKLL], the “measured KD at 300 mM NaCl relative to 100 mM NaCl” value in assay [4] (ITC control runs in 300 mM NaCl compared to 100 mM NaCl) was “four- to five-fold weaker”. Besides, the Kd in assay [5], in [6] and in [7] was less than 300 µM in each case.

For RRVV [RRVV peptide from p24], in assay [4], the “binding by ITC (in words)” value is reported as “no measurable binding”.

B1: CTFKTKTN peptide (KxKxx motif, synthetic peptide used in crystallization) (peptide)
peptide: CTFKTKTN
notes: synthetic KxKxx peptide used in crystallization; Looks like the Wbp1-derived CTFKKTN with a threonine between the two lysines; source: synthetic peptide
For the molecule B1, the binding result in assay [8] and in [9] was “binds” throughout.

B2: CTFKKTN peptide (KKxx motif derived from yeast Wbp1), used in crystallization (peptide)
peptide: CTFKKTN
notes: KKxx motif derived from the C terminus of yeast Wbp1; The N-terminal cysteine may not be a residue of Wbp1 (surmise); also called CTFKKTN motif; source: peptide
With B2, the binding result in assay [10] is on record as “binds”.

RQEIISTKLL-OH [Emp47 KxKxx peptide without the -5 lysine (STKLL)]: the Kd in assay [11] is approximately 160 µM.

Take CTFKKTN-OH [Wbp1 KKTN motif peptide used for ITC]: the Kd in [11] was approximately 85 µM.

B3: KxKxx motif peptide from wild-type yeast Emp47 (RQEIIKTKLL) (peptide)
peptide: RQEIIKTKLL
notes: also called KTKLL motif; source: peptide
On to B3, for which the Kd in [11] was 6.8 µM; in [12], less than 300 µM; in assay [13], less than 300 µM; in assay [14], less than 300 µM. As to RQEIIKTKLL (also called KTKLL motif) [yeast Emp47 C-terminal KxKxx peptide RQEIIKTKLL], in assay [15], the Kd lay within 10 to 20 µM.

For CTFKKTN-OH [KKTN motif peptide from yeast Wbp1 (as used in ITC)], the Kd in assay [16] came out at 81 µM.
